Experimental data as given in patent publication US20230167458A1, “FORSKOLIN-INDUCIBLE PROMOTERS AND HYPOXIA-INDUCIBLE PROMOTERS” (ASKLEPIOS BIOPHARMACEUTICAL, INC., priority 2020, published 2023).

B1: FORCYB1: synthetic forskolin-inducible promoter, SEQ ID NO: 45; 5× cAMPRE and 4× AP1 TFBS and YB-TATA (nucleic acid)
DNA: TGACGTCACGATTACCATTGACGTCACGATTACCATTGACGTCACGATTACCATTGACGTCACGATTACCATTGACGTCAGCGATTAAGATGACTCAGCGATTAAGATGACTCAGCGATTAAGATGACTCAGCGATTAAGATGACTCAGCGATTAATCCATATGCTCTAGAGGGTATATAATGGGGGCCACTAGTCTACTACCAGAAAGCTTGGTACCGAGCTCGGATCCAGCCACC
modifications: synthetic forskolin-inducible promoter

Key:
[1] = tested on: CHO-GS-KSV1 cell line; assay: SEAP expression in stably transfected CHO-GS-KSV1, forskolin or NKH477 induction; assay type: cell-based, chinese hamster; conditions: for optimal inducer concentration to induce expression from RTV-019: stably transfected CHO-GS-KSV1/CHO-K1SV, SEAP after 24 hours, 2, 5, 9, 18 or 32 pM tested
Procedure: The forskolin-inducible promoters were then tested in a stably transfected CHO-GS-KSV1 cell line.
• CD-CHO media (Life technologies, CAT #10743029) • Corning 125 mL Polycarbonate Erlenmeyer Flask with Vent Cap (CAT #734-1885). • Gene Pulser® Electroporation Cuvettes, 0.4 cm gap (BioRad, CAT #165-2088) • Gene Pulser Xcell Total System (BioRad, CAT, #1652660) • GS-vector DNA ([…] in 100 μL TE buffer) linearised with Sca1 • Suspension cultures of CHOK1SV GS-KO host cells.
Cell suspensions of 6×10^5 cells per mL were incubated on an orbital shaker set at 8% CO2, 20% O2, 37° C., 85% relative humidity and 140 rpm overnight. 2.86×10^7 cells were centrifuged at 200 g for 3 minutes. Media was then aspirated and cell pellet resuspended in 2 mL fresh CD-CHO media to obtain a concentration of 1.43×10^7 cells per mL. 700 μL of cell suspension was added to each of two electroporation cuvettes each containing […] of linearised DNA in 100 μL of sterile TE buffer (Thermofisher, 12090015). Each cuvette was electroporated, delivering a single pulse of 300V, […] with resistance to infinity. Immediately after delivery of pulse electroplated cells were transferred to Erlenmeyer 125 mL flask containing 20 mL of CD-CHO media pre-warmed to 37° C. Electroporated cells from two cuvettes are combined into a single 125 mL flask to generate one pool of cells. Cells are cultured on an orbital shaker set at 8% CO2, 20% O2, 37° C., 85% relative humidity and 140 rpm. Cells are transferred to fresh CD-CHO media 24 hours after transfection and cell cultures monitored and given fresh CD-CHO media every 2-4 days. Usually after about 10-14 days cell numbers will be high enough to start passaging.
The transfected DNA was the pXC-17.4 expression vector (Lonza Biologics plc) where one of the promoter constructs (or a control promoter (CMV-IE) have been cloned upstream of the secreted alkaline phosphatase (SEAP) gene, which had been cloned into the multiple cloning site within the vector expression cassette. Promoters were closed into the pXC-17.4 vector using Gibson assembly. The pXC-17.4 expression vector is designed for making stable cell lines in the CHO-GSK1SV cell line as it contains the […] gene which has been knocked out of the cell line. Therefore, selection of cells in glutamine drop-out medium will select for cells that have stably integrated the plasmid.
The responsiveness of the RTV-019 promoter to different concentrations of forskolin and […] was tested in the stably transfected CHO-GS-KSV1 cell line. To this end, the stably transfected CHO-GS cells were seeded at 500,000 cells/ml and allowed to grow for 24 hrs. At this point the cells were induced by addition of the respective concentrations of forskolin and NKH477 and SEAP expression was measured as described below after 24 hours.
The promoter activity and inducibility of FMP-02, FORCYB-001, RTV-017, FORCSV-10, FOR-CMC-009, FLP-01 and RTV-019 were also tested in the stably transfected CHO-GS-KSV1 cell line. To this end, the stably transfected CHO-GS cells were seeded at 500,000 cells/ml and allowed to grow for 24 hrs. At this point the cells were exposed to […] forskolin or […] NKH477 for 24 hours. After this point, the SEAP activity in the medium was assessed as described below.
SEAP Reporter Gene Assay, chemiluminescent (Roche, CAT #11 779 842 001) was used to measure SEAP activity as per the manufacturer's protocol. All reagents and samples were fully pre-equilibrated at room temperature. Culture supernatant was collected from the stably transfected CHO-GS at the specific time points (0 h and 24 h). The supernatant was diluted 1:4 in dilution buffer and heat treated at 65° C. for 30 minutes. The heat-treated sample was then centrifuged for 30 s at maximum speed. 50 μl of the heat-treated sample was then added to 5 μl of inactivation buffer and incubated for 5 min at room temperature. 50 μl of substrate reagent was then added and incubated for 10 min at room temperature. […]

[2] = tested on: Huh7 human liver cell line; assay: Luciferase expression from promoters in pAAV vector (with ITRs) in Huh7, forskolin or NKH477 induction; set-up: fold induction with forskolin: dose or concentration left out as unconfirmed
Procedure: The forskolin-inducible promoters RTV-017, RTV-019 and FORCYB1 were then used to drive expression of luciferase in a pAAV vector in the Huh7 human liver cell line. […] This experiment was performed to investigate the effect of the Inverted Terminal Repeats (ITRs) on the activity of the promoters.
The cells were seeded, transfected and induced as described above. Luciferase expression was measured as described above. In this experiment, the cells were induced by using 20 pM forskolin or 7.2 pM of the water soluble derivative NKH477.

Molecule	optimal inducer concentration to induce expression from RTV-019 [1]	optimal inducer concentration to induce expression from RTV-019 ([1]; listed as forskolin)	potency as inducer of the promoters compared with forskolin ([1]; stable CHO-GS-KSV1, 7.2 µM NKH477 vs 20 µM forskolin)	optimal inducer concentration to induce expression from RTV-019 ([1]; listed as NKH 477)	fold induction with forskolin ([2]; Huh7)	luciferase activity without induction (background) ([2]; Huh7)	fold induction with NKH477 ([2]; Huh7, 7.2 pM NKH477)	luciferase activity following induction ([2]; Huh7, or 7.2 pM NKH477)
C=C[C@@]1(C)CC(=O)[C@]2(O)[C@@]3(C)[C@@H](O)CCC(C)(C)[C@@H]3[C@H](O)[C@H](OC(C)=O)[C@@]2(C)O1 [Forskolin]	about 18 pM	18 µM						
C=C[C@@]1(C)CC(=O)[C@]2(O)[C@@]3(C)[C@@H](O)CCC(C)(C)[C@@H]3[C@H](OC(=O)CCN(C)C)[C@H](OC(C)=O)[C@@]2(C)O1.Cl [NKH477, NKH 477]	8 µM		slightly more potent inducer	about 8 pM				
B1					65 fold	low background activity	30 fold	high activity
